Assay results reported in ChEMBL document CHEMBL5131509 (Eur J Med Chem, 2022).
The source made the active and inactive calls. The rule behind the calls is not given here.

Assays:
Vero C1008 = conditions: chlorocebus sabaeus, vero c1008, 48 h
Description: (§1) Cytotoxicity against African Green monkey Vero E6 cells assessed as reduction in cell viability measured after 48 hrs by MTT assay

in vitro [1] = conditions: PAMPA
Description: (§2) Permeability of compound incubated for 3 hrs by UV plate reader based PAMPA assay

SARS-CoV-2 = experiment: Antiviral activity against SARS-CoV-2 infected in African Green monkey Vero cells assessed as inhibition of viral cytopathic effect measured after 72 hrs by inverted microscopic method; type: functional, organism-based, Vero E6; conditions: Severe acute respiratory syndrome coronavirus 2, Vero C1008, 72 h
[2] = Oral bioavailability in rat at 5 mg/kg; type: ADME, organism-based; conditions: in vivo
Vero E6 = type: cell-based; conditions: Chlorocebus aethiops, time 1.0 hrs
[3] = Metabolic stability of the compound in human liver microsomes S9 fraction preincubated with NADPH for 10 mins followed by compound addition at 50 uM measured upto 360 mins by HPLC analysis; type: ADME, subcellular; conditions: read-out: Stability
in vitro [4] = conditions: chlorocebus sabaeus, Vero E6 cells
Description: Cytotoxicity against African green monkey Vero E6 cells assessed as reduction in cell viability preincubated for 2 hrs followed by SARS-CoV-2 addition measured after 24 hrs by CPE assay

in vitro [5] = conditions: chlorocebus sabaeus, Vero E6 cells; remark: listed apart in the source
Description: as §1

[6] = pampa, 3 h
Description: as §2

[7] = Selectivity ratio of CC50 for African Green monkey Vero E6 cells to IC50 for SARS-CoV-2; type: toxicity, Vero C1008
[8] = Stability of compound in human plasma at 100 uM by HPLC analysis; type: ADME, cell-free; conditions: read-out: Stability

O=C(Nc1ccc(N2CCCCC2)cc1)c1cc(Cl)ccc1O
CC50 (Vero C1008): 65.9 µM
Papp at 3 h (in vitro [1]): 43.3 ×10⁻⁶ cm/s

O=C(Nc1ccc([N+](=O)[O-])cc1Cl)c1cc(Cl)ccc1O [NICLOSAMIDE]
IC50 (SARS-CoV-2): 0.4 µM
bioavailability [2]: 10%
inhibition (Vero E6): Active
CC50 (Vero C1008): 1.03 µM
Papp at 3 h (in vitro [1]): 8.5 ×10⁻⁶ cm/s

Cc1ccc(O)c(C(=O)Nc2ccc([N+](=O)[O-])cc2Cl)c1
CC50 (Vero C1008): 5.68 µM
Papp at 3 h (in vitro [1]): 20.9 ×10⁻⁶ cm/s

O=C(Nc1cccc(C(F)(F)F)c1)c1cc(Cl)ccc1O
IC50 (SARS-CoV-2): 0.49 µM
remaining at 6 h, 50 µM [3]: 47%
CC50 (Vero C1008): 5.95 µM
Papp at 3 h (in vitro [1]): 4.2 ×10⁻⁶ cm/s
CC50 at 24 h (in vitro [4]): 100 µM

O=C(Nc1ccc(O)cc1)c1cc(Cl)ccc1O
CC50 at 48 h (in vitro [5]): > 100 µM
Papp at 3 h (in vitro [1]): 33.1 ×10⁻⁶ cm/s

CNC(=C[N+](=O)[O-])NCCSCc1ccc(CN(C)C)o1 [RANITIDINE]
Papp at 3 h (in vitro [1]): 1.6 ×10⁻⁶ cm/s

O=C(Nc1ccc(F)c(Cl)c1)c1cc(Cl)ccc1O
CC50 (Vero C1008): 2.44 µM
Papp at 3 h (in vitro [1]): 11.5 ×10⁻⁶ cm/s

O=C(Nc1ccc(F)cc1)c1cc(Cl)ccc1O
CC50 (Vero C1008): 6.78 µM
permeability [6]: 18.2 10^-6 cm/s

O=C(Nc1cccc(F)c1)c1cc(Cl)ccc1O
CC50 (Vero C1008): 3.63 µM
Papp at 3 h (in vitro [1]): 3.7 ×10⁻⁶ cm/s

O=C(Nc1ccccc1)c1cc(Cl)ccc1O
IC50 (SARS-CoV-2): 8.59 µM
CC50 (Vero C1008): 19.2 µM
Papp at 3 h (in vitro [1]): 16 ×10⁻⁶ cm/s

O=C(Nc1ccc([N+](=O)[O-])cc1Cl)c1cc(F)ccc1O
CC50 (Vero C1008): 8.15 µM
Papp at 3 h (in vitro [1]): 30.7 ×10⁻⁶ cm/s

O=C(Nc1ccc([N+](=O)[O-])cc1)c1cc(Cl)ccc1O
IC50 (SARS-CoV-2): 1.11 µM
permeability [6]: 12.4 10^-6 cm/s

O=C(Nc1ccc(O[C@@H]2O[C@H](CO)[C@@H](O)[C@H](O)[C@H]2O)cc1)c1cc(Cl)ccc1O
CC50 (Vero C1008): > 100 µM
Papp at 3 h (in vitro [1]): 1.9 ×10⁻⁶ cm/s

Cc1c(O)cccc1C(=O)N[C@@H](CSc1ccccc1)[C@H](O)CN1C[C@H]2CCCC[C@H]2C[C@H]1C(=O)NC(C)(C)C
IC50 (SARS-CoV-2): 3.3 µM

O=C(Nc1ccc([N+](=O)[O-])cc1Cl)c1ccccc1O
IC50 (SARS-CoV-2): 1.68 µM
selectivity ratio [7]: 1.2
CC50 (Vero C1008): 2.03 µM
Papp at 3 h (in vitro [1]): 15.3 ×10⁻⁶ cm/s
CC50 at 24 h (in vitro [4]): 100 µM

Cc1ccc(CNC(=O)c2cc(Cl)ccc2O)cc1
CC50 (Vero C1008): 47.7 µM
Papp at 3 h (in vitro [1]): 42.6 ×10⁻⁶ cm/s

Cc1ccc(C(=O)Nc2ccc([N+](=O)[O-])cc2Cl)c(O)c1
CC50 (Vero C1008): 21.6 µM
Papp at 3 h (in vitro [1]): 6.1 ×10⁻⁶ cm/s

CC(C)(C)c1cccc(NC(=O)c2cc(Cl)ccc2O)c1
IC50 (SARS-CoV-2): 1.51 µM
selectivity ratio [7]: 1.6
CC50 (Vero C1008): 2.36 µM
Papp at 3 h (in vitro [1]): 18.7 ×10⁻⁶ cm/s

O=C(Nc1ccc([N+](=O)[O-])cc1Cl)c1ccccc1
CC50 (Vero C1008): > 100 µM
Papp at 3 h (in vitro [1]): 42.2 ×10⁻⁶ cm/s

O=C(Nc1cccc(O)c1)c1cc(Cl)ccc1O
CC50 at 48 h (in vitro [5]): > 100 µM
Papp at 3 h (in vitro [1]): 15.9 ×10⁻⁶ cm/s

Cc1cccc(CNC(=O)c2cc(Cl)ccc2O)c1
CC50 (Vero C1008): 82.4 µM
Papp at 3 h (in vitro [1]): 28.4 ×10⁻⁶ cm/s

O=C(Nc1cccc([N+](=O)[O-])c1)c1cc(Cl)ccc1O
IC50 (SARS-CoV-2): 1.29 µM
CC50 (Vero C1008): 3.53 µM
Papp at 3 h (in vitro [1]): 19.5 ×10⁻⁶ cm/s

O=C(Nc1ccc(C(F)(F)F)cc1)c1cc(Cl)ccc1O
IC50 (SARS-CoV-2): 0.38 µM
Papp at 3 h (in vitro [1]): 6.9 ×10⁻⁶ cm/s

COc1ccc2cc1Oc1ccc(cc1)C[C@H]1c3c(cc4c(c3Oc3cc5c(cc3OC)CCN(C)[C@@H]5C2)OCO4)CCN1C [CEPHARANTHINE]
IC50 (SARS-CoV-2): 2.8 µM

O=C(Nc1cccc(Cl)c1)c1cc(Cl)ccc1O
IC50 (SARS-CoV-2): 0.39 µM
remaining at 6 h, 50 µM [3]: 33%
CC50 (Vero C1008): 2.46 µM
Papp at 3 h (in vitro [1]): 8.6 ×10⁻⁶ cm/s

O=C(Nc1ccc([N+](=O)[O-])c(Cl)c1)c1cc(Cl)ccc1O
IC50 (SARS-CoV-2): 0.057 µM
remaining at 100 µM [8]: 78%
remaining at 6 h, 50 µM [3]: 41%
inhibition (Vero E6): Active
